Laboratory results as given in patent publication US20250340543A1, “GPR84 ANTAGONISTS AND USES THEREOF” (Liminal BioSciences Limited, priority 2021, published 2025).

Molecular target: GPR84 (Homo sapiens (Human), UniProt Q9NQS5)
Assay: Gai biosensor BRET assay (GPR84-mediated activation of Gai, antagonist mode against agonist ZQ-16)
Assay type: cell-based
Conditions: for inhibition at 25 µM: compound tested at 25 μM (concentration code G); for IC50: HEK293 cells, 200 nmol/L GPR84 agonist ZQ-16, read-out: hGPR84 IC50; for inhibition at 15 µM: compound tested at 15 μM (concentration code F); for inhibition at 2 µM: compound tested at 2 μM (concentration code A); for inhibition at 10 µM: compound tested at 10 μM (concentration code D); for inhibition at 12.5 µM: compound tested at 12.5 μM (concentration code E)
From the text: Background—The following assays can be used for determination of GPR84 activation in living HEK293 cells. […] The Gai biosensor consists of a Rluc8-tagged Gαi2 subunit, a GFP10-tagged Gγ2 subunit, and an untagged Gβ1. […] Moreover, signaling functions of GPCRs are tightly regulated by endocytosis, the targeting of receptors to endosomes and their sorting to lysosomes or recycling to the plasma membrane. […] Agonist stimulation of GPR84—Rluc8 leads to trafficking of the receptor to EEs, and ensuing increase of the donor concentration relative to the rGFP-FYVE acceptor anchored in the same cellular compartment, and thus results in an increase in BRET signal.
Plasmids—The cDNA clones for human GPR84 receptor, human Gαi2, Gβ1, and Gγ2 were obtained from the cDNA Resource Center (www.cdna.org). GFP10 (F64L, S147P, S202F and H231L variant of Aequorea victoria Green Fluorescent Protein) gBlocks gene fragments (Integrated DNA Technologies, IA) and linker were inserted in frame at the N-terminus of human Gγ2. Rluc8 (A55T, C124A, S130A, K136R, A143M, M185V, M253L, and S287L variant of the Renilla renformis luciferase) gBlocks gene fragment was inserted with linkers in frame in between residues 91 and 92 of Gαi2 or at the C-terminus of GPR84. The FYVE domain from human endofin (residues Q739 to K806) attached in frame at the C terminus of a humanized Renilla GFP (rGFP), were synthesized as gBlocks gene fragments.
Bioluminescence Resonance Energy Transfer (BRET) Measurement—HEK293 cells were transfected with GPR84—Rluc8 and rGFP-FYVE for the EEs trafficking biosensor or with GPR84, Gαi2—Rluc8, GFP10-Gγ2, and Gβ1 for the Gai biosensor. The following day, transiently transfected cells were seeded in 96-well white clear bottom microplates coated with poly-D-lysine and left in culture for 24 hours. Cells were washed once with Tyrode's buffer (140 mmol/L NaCl, 1 mmol/L CaCl2, 2.7 mmol/L KCl, 0.49 mmol/L MgCl2, 0.37 mmol/L NaH2PO4, 5.6 mmol/L glucose, 12 mmol/L NaHCO3, and 25 mmol/L HEPES, pH 7.5) before performing assays in Tyrode's buffer. Test compounds were incubated with cells for 5 (Gai) or 15 (EEs) minutes at 37° C. before addition of 200 nmol/L of the GPR84 agonist ZQ-16 (2-(Hexylthio)-6-hydroxy-4(3H)-pyrimidinone) for 5 minutes at room temperature (Gai) or 30 minutes at 37° C. (EEs). The Rluc8 substrate coelenterazine 400A (Prolume, Lakeside, AZ) was added at a final concentration of […] and BRET readings were collected using an Infinite M1000 microplate reader (Tecan, Morrisville, NC). BRET^2 readings between Rluc8 and GFP10 or rGFP were collected by sequential integration of the signals detected in the 370 to 450 nm (Rluc8) and 510 to 540 nm (GFP10, rGFP) windows. The BRET signal was calculated as the ratio of light emitted by acceptor (GFP10, rGFP) over the light emitted by donor (Rluc8). The values were corrected to net BRET by subtracting the background BRET signal obtained in cells transfected with Rluc8 constructs alone. Ligand-promoted net BRET values were calculated by subtracting vehicle-induced net BRET from ligand-induced net BRET.

Sequence of GPR84 (Q9NQS5 whole entry): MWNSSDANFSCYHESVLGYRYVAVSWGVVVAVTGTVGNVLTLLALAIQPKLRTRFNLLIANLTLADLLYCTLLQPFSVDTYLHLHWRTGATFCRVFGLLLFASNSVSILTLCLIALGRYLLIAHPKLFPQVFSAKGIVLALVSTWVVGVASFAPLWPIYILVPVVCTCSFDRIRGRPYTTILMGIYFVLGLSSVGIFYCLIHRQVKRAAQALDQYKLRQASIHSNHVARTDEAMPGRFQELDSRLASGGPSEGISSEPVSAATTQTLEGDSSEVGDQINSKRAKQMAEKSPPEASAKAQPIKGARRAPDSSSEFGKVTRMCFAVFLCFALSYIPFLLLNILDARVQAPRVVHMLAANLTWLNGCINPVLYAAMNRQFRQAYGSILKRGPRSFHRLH

Row | Compound | inhibition at 25 µM [%] | inhibition at 10 µM [%] | also measured
1 | Cc1cc(C#CC2CC2)ccc1-c1cc(OCC2COCCO2)n(C)c(=O)n1 (stereo not drawn) [Compound I-126] | < 25 | – | –
2 | O=C(CC1CCOCC1)N1CCc2cc(C#CC3CC3)ccc2C1 [Compound I-181] | – | – | IC50: > 25 µM; inhibition at 15 µM: 25 to 50%
3 | COc1cc(OCC2COCCO2)cc(-c2ccc(OCc3ccccn3)cc2C)n1 (stereo not drawn) [Compound I-37] | 25 to 50 | – | IC50: < 5 µM
4 | Cc1cc(OCc2cccnn2)cc(=O)n1[C@H](C)c1ccc(C#CC2CC2)cc1 [Compound I-291] | – | – | IC50: < 5 µM; inhibition at 2 µM: > 75%
5 | Cc1cc(OCc2cscn2)cc(=O)n1[C@H](C)c1ccc(C#CC2CC2)cc1 [Compound I-294] | – | > 75 | IC50: < 5 µM
6 | Cc1cc(C#CC2CC2)ccc1C(C)n1ccc(OCc2ncccn2)cc1=O (stereo not drawn) [Compound I-251] | – | < 25 | –
7 | Cc1cc(OCc2ncc[nH]2)cc(=O)n1[C@H](C)c1ccc(C#CC2CC2)cc1 [Compound I-355] | – | 25 to 50 | –
8 | Cc1cc(OCc2nccs2)cc(=O)n1[C@H](C)c1ccc(C#CC2CC2)cc1 [Compound I-293] | – | – | IC50: < 5 µM; inhibition at 2 µM: > 75%
9 | O=C(NCC1CCCO1)N1CCc2cc(C#CC3CC3)ccc2C1 (stereo not drawn) [Compound I-183] | – | – | inhibition at 1 µM (compound tested at 1 μM (concentration code A*)): < 25%
10 | Cc1cc(OCc2ccccn2)ccc1-c1cc(OCC2COc3ncccc3O2)cc(=O)[nH]1 (stereo not drawn) [Compound I-48] | – | 25 to 50 | –
11 | Cn1c(-c2ccc(OCC(F)(F)F)cc2)cc(OCC2COCCO2)nc1=O (stereo not drawn) [Compound I-62] | < 25 | – | –
12 | Cc1cc(OCC2COCCO2)cc(=O)n1Cc1cccc(C#CC(C)(C)C)c1 (stereo not drawn) [Compound I-96] | – | < 25 | –
13 | CC#Cc1ccc([C@@H](C)n2c(C)cc(OCC3COCCO3)cc2=O)cc1 (stereo partly drawn) [Compound I-219] | – | 50 to 75 | –
14 | Cc1c(-c2ccc(OCC(F)(F)F)cc2)n(C)c(OCC2COCCO2)cc1=O (stereo not drawn) [Compound I-52] | – | – | inhibition at 12.5 µM: 25 to 50%
15 | Cc1cc(OCC2COCCO2)cc(=O)n1C(C)c1ccc(C#CC2CC2)cn1 (stereo not drawn) [Compound I-76] | – | < 25 | –
16 | Cc1cc(OCc2ncccn2)cc(=O)n1C(C)c1ccc(C#CC2CC2)cn1 (stereo not drawn) [Compound I-253] | – | 50 to 75 | –
17 | Cc1cc(OCC2OCC(C)(C)CO2)cc(=O)n1[C@H](C)c1ccc(C#CC2CC2)cc1 [Compound I-227] | – | 50 to 75 | –
18 | Cc1nc(OCc2ccc(C#CC3CC3)cc2)cc(OCC2COCCO2)n1 (stereo not drawn) [Compound I-92] | < 25 | – | –
19 | Cc1cc(OCc2ncccn2)cc(=O)n1C(C)c1cnc(C#CC2CC2)nc1 (stereo not drawn) [Compound I-340] | – | < 25 | –
20 | Cc1cc(OCc2ncccn2)cc(=O)n1[C@H](C)c1cccc(C#CC2CC2)c1 [Compound I-252] | – | – | inhibition at 2 µM: < 25%

Row | Compound | inhibition at 25 µM [%] | inhibition at 10 µM [%] | also measured
21 | COc1cc(OCC2COCCO2)nc(-c2ccc(OCC(F)(F)F)cc2)c1OC (stereo not drawn) [Compound I-94] | < 25 | – | –
22 | Cc1cc(OCc2ncccn2)cc(=O)n1[C@H](C)c1ccc(-c2cnc(C3CC3)nc2)cc1 [Compound I-347] | – | < 25 | –
23 | O=c1oc2ccc(-c3ccc(C#CC4CC4)cc3)cc2n1CC1COCCO1 (stereo not drawn) [Compound I-169] | < 25 | – | –
24 | Cn1c(-c2ccc(C#CC3CC3)cc2)cc(OCC2COCCO2)cc1=O (stereo not drawn) [Compound I-67] | < 25 | – | –
25 | COc1ccc(OCC2COCCO2)cc1Cc1ccc(C#CC2CC2)cc1 (stereo not drawn) [Compound I-210] | – | – | inhibition at 15 µM: < 25%
26 | Cc1cc(OCc2ncccn2)cc(=O)n1[C@@H](C)Cc1cccc(C#CC2CC2)c1 (stereo in doubt) [Compound I-282] | – | < 25 | –
27 | Cc1cnc(COc2cc(C)n([C@H](C)c3ccc(C#CC4CC4)cc3)c(=O)c2)nc1 [Compound I-279] | – | > 75 | –
28 | Cc1cc(C#CC2CC2)ccc1C(C)n1c(C)cc(OCC2COCCO2)cc1=O (stereo not drawn) [Compound I-100] | – | < 25 | –
29 | CCn1c(-c2ccc(C#CC3CC3)cc2)cc(OCC2COCCO2)cc1=O (stereo not drawn) [Compound I-26] | 50 to 75 | – | IC50: 10 to 15 µM
30 | O=c1cnn(CC2CCCCO2)c(-c2ccc(C#CC3CC3)cc2)c1 (stereo not drawn) [Compound I-16] | < 25 | – | –
31 | COc1cc(OCC2COCCO2)cc(-c2ccc(OCc3ccccn3)cc2)n1 (stereo not drawn) [Compound I-15] | – | – | inhibition at 12.5 µM: < 25%
32 | Cc1cc(C#CC2CC2)cnc1C(C)n1ccc(OCc2ncccn2)cc1=O (stereo not drawn) [Compound I-254] | – | < 25 | –
33 | Cc1cc(OCc2ncccn2)cc(=O)n1[C@H](C)c1ccc(C#CC2CCC2)cc1 [Compound I-314] | – | > 75 | –
34 | COc1cc(OC[C@H]2COCCO2)nc(-c2ccc(OCC(F)(F)F)cc2)c1C [Compound I-39] | 25 to 50 | – | –
35 | Cc1c(C#CC2CC2)cccc1Cn1c(C)cc(OC[C@H]2COCCO2)cc1=O [Compound I-49] | – | 25 to 50 | –
36 | Cc1cc(OCc2ncccn2)cc(=O)n1[C@H](C)Cc1cccc(C#CC2CC2)c1 (stereo in doubt) [Compound I-281] | – | < 25 | –
37 | Cc1cc(OCc2nccn2C(C)C)cc(=O)n1[C@H](C)c1ccc(C#CC2CC2)cc1 [Compound I-348] | – | > 75 | –
38 | Cc1ccc(-c2ccc3c(c2)CCN(C(=O)CC2CCCCO2)C3)cn1 (stereo not drawn) [Compound I-203] | 25 to 50 | – | –
39 | Cc1cc(OCc2ncccn2)cc(=O)n1[C@H](C)c1ccc(C#CCNCc2ccccc2)cc1 [Compound I-263] | – | < 25 | –
40 | Cc1ccc(-c2ccc(-c3cc(OCC4COCCO4)cc(Cl)n3)cc2)cn1 (stereo not drawn) [Compound I-105] | < 25 | – | –

Row | Compound | inhibition at 25 µM [%] | inhibition at 10 µM [%] | also measured
41 | Cc1cc(OCc2ncccn2)cc(=O)n1[C@H](C)c1ccc(C#CCN(C)Cc2ccccc2)cc1 [Compound I-264] | – | 25 to 50 | –
42 | COc1cc(OCC2COCCO2)cc(-c2ccc(C#CC3CC3)cc2)n1 (stereo not drawn) [Compound I-40] | < 25 | – | –
43 | Cc1cc(OCC2COCCO2)cc(=O)n1C(C)c1cccc(C#CC2CC2)c1 (stereo not drawn) [Compound I-88] | – | < 25 | –
44 | COc1cc(OCC2COCCO2)cc(-c2ccc(OCC(F)(F)F)cc2)c1OC (stereo not drawn) [Compound I-156] | < 25 | – | –
45 | O=C(CC1COCCO1)N1Cc2ccc(C#CC3CC3)cc2C1 (stereo not drawn) [Compound I-177] | < 25 | – | –
46 | Cc1cc(OC[C@H]2COCCO2)cc(=O)n1[C@@H](C)c1ccc(C#CC2CC2)cc1 [Compound I-44] | – | 25 to 50 | –
47 | FC(F)(F)COc1ccc(-c2cc(OCC3COCCO3)cc(C3COC3)c2)cc1 (stereo not drawn) [Compound I-163] | < 25 | – | –
48 | COc1nc(OCC2COCCO2)cc(-c2ccc(C#CC3CC3)cc2C)n1 (stereo not drawn) [Compound I-103] | < 25 | – | –
49 | Cc1cc(N(C)Cc2ncccn2)cc(=O)n1[C@H](C)c1ccc(C#CC2CC2)cc1 [Compound I-372] | – | > 75 | –
50 | Cc1ccc(C#CC2CC2)cc1Cn1c(C)cc(OCc2ncccn2)cc1=O [Compound I-289] | – | – | inhibition at 2 µM: < 25%
51 | Cc1cc(OCn2cccn2)cc(=O)n1[C@H](C)c1ccc(C#CC2CC2)cc1 [Compound I-295] | – | > 75 | –
52 | Cc1ccc(-c2ccc3c(c2)CN(C(=O)CC2CCCCO2)C3)cn1 (stereo not drawn) [Compound I-197] | < 25 | – | –
53 | Cc1cc(OCC2COCCO2)cc(=O)n1Cc1cccc(C#CCNCc2ccccc2)c1 (stereo not drawn) [Compound I-97] | – | < 25 | –
54 | COc1cnc(OCC2COCCO2)c(-c2ccc(OCC(F)(F)F)cc2)c1OC (stereo not drawn) [Compound I-131] | < 25 | – | –
55 | Cc1cc(OCc2ncccc2F)cc(=O)n1[C@H](C)c1ccc(C#CC2CC2)cc1 [Compound I-278] | – | – | IC50: < 5 µM; inhibition at 2 µM: > 75%
56 | COc1ccc2c(-c3ccc(C#CC4CC4)cc3)nnn2c1 [Compound I-215] | – | – | inhibition at 5 µM (compound tested at 5 μM (concentration code C)): < 25%
57 | Cc1cc(OCc2nccn2C)cc(=O)n1[C@H](C)c1ccc(C#CC2CC2)cc1 [Compound I-303] | – | – | IC50: < 5 µM; inhibition at 2 µM: > 75%
58 | COc1cc(OCC2CCOCC2)cc(-c2ccc(-c3ccc(C)nc3)cc2C)n1 [Compound I-3] | – | – | IC50: < 5 µM
